Measured values as given in patent publication US20100172854A1, “ANTIBACTERIAL FORMULATIONS” (priority 2007, published 2010).
≈ marks a conversion by molar mass, not a printed value. Blank lines part the entries; values can stand above or below the compound they belong to.

Legend:
Assay type in all cases: cell-based
[1] = test system: Staphylococcus aureus ATCC 29213; assay: MIC assay; conditions: ATCC29213, S. aureus ATCC 29213
Procedure: (§1) The staphylococci were cultured and maintained on Mueller-Hinton Medium (agar and broth) at pH 7.2; cultures were incubated aerobically at 37° C. for 19-20 hours.
(§2) This is a standard international method for quantitatively assessing the antimicrobial activity of a compound in a liquid medium. The method used a sterile 96-well microtitre plate, capable of holding about 200 μl of liquid per well. The wells contained liquid culture medium and ranges of decreasing concentrations of the relevant test compound in doubling dilutions (e.g. 1000, 500, 250, 125 . . . μg/ml, etc. down to 0.49 μg/ml). The culture media were as described above.
(§3) The wells were inoculated with a liquid suspension of freshly grown micro-organism and incubated under the conditions described above. After incubation, the microtitre plate was examined visually (with the aid of a light box) for cloudiness in each well, which would indicate microbial growth. The MIC value was recorded as the lowest concentration of test compound required to inhibit microbial growth, i.e. the lowest concentration for which the liquid in the well remained clear.
(§4) The assays included both negative (culture medium with no micro-organisms) and positive (culture medium plus diluting solvent plus micro-organism) controls.

[2] = test system: Staphylococcus aureus ATCC 29213; assay: MBC assay; conditions: S. aureus ATCC 29213; for MBC: Staphylococcus aureus, ATCC29213
Procedure: as §1
(§5) This assay, normally carried out after an MIC assay, determines the minimum concentration of a compound that is lethal to the micro-organism being tested.
(§6) These samples were then individually sub-cultured on antibiotic-free agar medium, under the incubation conditions described above. Following incubation they were examined visually for microbial growth.

[3] = test system: Propionibacterium acnes NCTC 737; assay: MBC assay; conditions: P. acnes NCTC 737; for MBC: Cutibacterium acnes, NCTC737
Procedure: (§7) The propionibacteria were cultured and maintained on Wilkins-Chalgren Anaerobe Medium (agar and broth) at pH 6.0; all cultures were incubated anaerobically at 37° C. for 72 hours.
as §5, §6

[4] = test system: Propionibacterium acnes NCTC 737; assay: MIC assay; conditions: Cutibacterium acnes, NCTC737; P. acnes NCTC 737
Procedure: as §7, §2, §3, §4

[5] = test system: Listeria monocytogenes ATCC 15313; assay: MIC assay; conditions: ATCC15313, read-out: MIC
Procedure: as §2, §3, §4

[6] = test system: Bacillus cereus ATCC 11778; assay: MIC assay; conditions: ATCC11778, read-out: MIC
Procedure: as §2, §3, §4

[7] = test system: Clostridium difficile ATCC 7000057; assay: MIC assay; conditions: Clostridioides difficile, ATCC7000057
Procedure: as §2, §3, §4

[8] = test system: Prevotella nigrescens ATCC 33563; assay: MIC assay; conditions: ATCC33563
Procedure: as §2, §3, §4

[9] = test system: Gardnerella vaginalis ATCC 14018; assay: MIC assay; conditions: ATCC14018
Procedure: as §2, §3, §4

[10] = test system: Clostridium sporogenes ATCC 3584; assay: MIC assay; conditions: ATCC3584
Procedure: as §2, §3, §4

[11] = test system: Corynebacterium mucifaciens ATCC 700355; assay: MIC assay; conditions: C. mucifaciens ATCC 700355
Procedure: as §2, §3, §4

[12] = test system: Streptococcus sobrinus ATCC 33478; assay: MIC assay; conditions: ATCC33478
Procedure: as §2, §3, §4

[13] = test system: Enterococcus faecalis ATCC 29212; assay: MIC assay; conditions: E. faecalis ATCC 29212
Procedure: as §2, §3, §4

[14] = test system: Streptococcus pyogenes ATCC 12344; assay: MIC assay; conditions: S. pyogenes ATCC 12344
Procedure: as §2, §3, §4

[15] = test system: Actinomyces naeslundii ATCC 12104; assay: MIC assay; conditions: ATCC12104, read-out: MIC
Procedure: as §2, §3, §4

[16] = test system: Porphyromonas gingivalis ATCC 53978; assay: MBC assay
Procedure: (§8) The P. gingivalis strains were cultured and maintained on Wilkins-Chalgren Anaerobe Medium (agar and broth) at pH 7.0; all cultures were incubated anaerobically at 37° C. for 5-7 days.
as §5, §6

[17] = test system: Porphyromonas gingivalis ATCC BAA-308; assay: MBC assay
Procedure: as §8, §5, §6

[18] = test system: Porphyromonas gingivalis NCTC 11834; assay: MBC assay
Procedure: as §8, §5, §6

[19] = test system: Porphyromonas gingivalis ATCC 53978; assay: MIC assay; conditions: ATCC53978
Procedure: as §8, §2, §3, §4

[20] = test system: Porphyromonas gingivalis ATCC BAA-308; assay: MIC assay; conditions: ATCCBAA308
Procedure: as §8, §2, §3, §4

[21] = test system: Porphyromonas gingivalis NCTC 11834; assay: MIC assay; conditions: NCTC11834
Procedure: as §8, §2, §3, §4

[22] = test system: Listeria monocytogenes ATCC 15313; assay: MBC assay
Procedure: as §5, §6

[23] = test system: Bacillus cereus ATCC 11778; assay: MBC assay
Procedure: as §5, §6

[24] = test system: Clostridium difficile ATCC 7000057; assay: MBC assay
Procedure: as §5, §6

[25] = test system: Prevotella nigrescens ATCC 33563; assay: MBC assay
Procedure: as §5, §6

[26] = test system: Gardnerella vaginalis ATCC 14018; assay: MBC assay
Procedure: as §5, §6

[27] = test system: Clostridium sporogenes ATCC 3584; assay: MBC assay
Procedure: as §5, §6

[28] = test system: Streptococcus sobrinus ATCC 33478; assay: MBC assay
Procedure: as §5, §6

[29] = test system: Actinomyces naeslundii ATCC 12104; assay: MBC assay
Procedure: as §5, §6

[30] = test system: Streptococcus mutans ATCC 25175; assay: MIC assay; conditions: ATCC25175
Procedure: (§9) The S. mutans strains were cultured and maintained on Wilkins-Chalgren Anaerobe Medium (agar and broth) at pH 7.0 supplemented with 1 g/L glucose; all cultures were incubated at 37° C. for 48 h in an atmosphere containing 5% CO2.
as §2, §3, §4

[31] = test system: Streptococcus mutans ATCC 35668; assay: MIC assay; conditions: ATCC35668
Procedure: as §9, §2, §3, §4

[32] = test system: Streptococcus mutans ATCC 25175; assay: MBC assay
Procedure: as §9, §5, §6

[33] = test system: Streptococcus mutans ATCC 35668; assay: MBC assay
Procedure: as §9, §5, §6

MIC [1]: > 250 µg/mL
MIC [4]: > 250 µg/mL
Compound: CC(c1cc(C(C)(C)C)cc(C(C)(C)C)c1O)c1cc(C(C)(C)C)cc(C(C)(C)C)c1O [2,2′-ethylidene-bis(4,6-di-tert-butylphenol), reference compound]
MBC [2]: > 250 µg/mL
MBC [3]: > 250 µg/mL

MIC [1]: > 250 µg/mL
MIC [4]: > 250 µg/mL
Compound: CC(C)(C)c1cc(Cc2cc(C(C)(C)C)c(O)c(C(C)(C)C)c2)cc(C(C)(C)C)c1O [4,4′-methylenebis(2,6-di-tert-butylphenol), reference compound]
MBC [2]: > 250 µg/mL
MBC [3]: > 250 µg/mL

Compound: CCc1cc(Cc2cc(CC)cc(C(C)(C)C)c2O)c(O)c(C(C)(C)C)c1 [AO 425, 2,2′-methylene-bis(4-ethyl-6-tert-butylphenol)]
MIC [5]: 0.98 µg/mL (≈ 2.66 µM)
MIC [6]: 1.95 µg/mL (≈ 5.29 µM)
MIC [7]: 7.8 µg/mL (≈ 21.2 µM)
MIC [8]: 15.6 µg/mL (≈ 42.3 µM)
MIC [9]: 15.6 µg/mL (≈ 42.3 µM)
MIC [10]: 3.9 µg/mL (≈ 10.6 µM)
activity compared with AO 2246 [11]: significantly lower activity
MIC [12]: 31.2 µg/mL (≈ 84.8 µM)
activity compared with AO 2246 [13]: significantly lower activity
activity compared with AO 2246 [14]: significantly lower activity
MIC [15]: 0.98 µg/mL (≈ 2.66 µM)
MIC/MBC Ratio [16]: 1
MBC ([16]; ATCC53978, read-out: MBC): 0.98 µg/mL (≈ 2.66 µM)
MIC/MBC Ratio [17]: 0.5
MBC ([17]; ATCCBAA308): 3.9 µg/mL (≈ 10.6 µM)
MIC/MBC Ratio [18]: 1
MBC ([18]; NCTC11834): 1.95 µg/mL (≈ 5.29 µM)
MIC [1]: 7.8 µg/mL (≈ 21.2 µM)
MIC [19]: 0.98 µg/mL (≈ 2.66 µM)
MIC [20]: 1.95 µg/mL (≈ 5.29 µM)
MIC [21]: 1.95 µg/mL (≈ 5.29 µM)
MIC/MBC Ratio [22]: 0.125
MBC ([22]; ATCC15313): 7.8 µg/mL (≈ 21.2 µM)
MIC/MBC Ratio [23]: 0.5
MBC ([23]; ATCC11778): 3.9 µg/mL (≈ 10.6 µM)
MIC/MBC Ratio [24]: 1
MBC ([24]; Clostridioides difficile, ATCC7000057): 7.8 µg/mL (≈ 21.2 µM)
MIC/MBC Ratio [25]: <1
MBC ([25]; ATCC33563): > 15.6 µg/mL
MIC/MBC Ratio [26]: 0.5
MBC ([26]; ATCC14018): 31.2 µg/mL (≈ 84.8 µM)
MIC/MBC Ratio [27]: 0.5
MBC ([27]; ATCC3584): 7.8 µg/mL (≈ 21.2 µM)
MIC/MBC Ratio [28]: 0.5
MBC ([28]; ATCC33478): 62.5 µg/mL (≈ 170 µM)
MIC/MBC Ratio [29]: 0.25
MBC ([29]; ATCC12104): 3.9 µg/mL (≈ 10.6 µM)
MIC [30]: 15.6 µg/mL (≈ 42.3 µM)
MIC [31]: 7.8 µg/mL (≈ 21.2 µM)
MIC/MBC Ratio [2]: 0.125
MBC [2]: 62.5 µg/mL (≈ 170 µM)
MBC [3]: 31.2 µg/mL (≈ 84.8 µM)
MIC/MBC Ratio [3]: 0.25
MIC/MBC Ratio [32]: 0.25
MBC ([32]; ATCC25175): 62.5 µg/mL (≈ 170 µM)
MIC/MBC Ratio [33]: <0.03
MBC ([33]; ATCC35668): > 250 µg/mL
MIC [4]: 7.8 µg/mL (≈ 21.2 µM)
